Results taken from PubChem BioAssay AID328 (DTP/NCI, 2004).
Values joined by “and” are separate entries in the source; they are usually repeats but may differ in a detail not shown here. Identical values can stand only once. Toxic doses and inconclusive results are not listed.

Test system: BDF1 mice, P388 leukemia ip, median survival T/C
Test: NCI In Vivo Anticancer Drug Screen. Data for tumor model P388 Leukemia (intraperitoneal) in B6D2F1 (BDF1) mice
Conditions: endpoint: median survival time, higher = longer survival
Procedure, shortened: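 Compound-treated tumour-bearing mice were compared with vehicle-treated controls. Survival was recorded, and the value is the treated-group measurement divided by the control-group measurement (T/C).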

[1] = dose: 100.0 mg/kg/injection, schedule: Q01DX009 (ip), vehicle: Klucel (hydroxypropylcellulose) (HPC)
[2] = dose: 100.0 mg/kg/injection, schedule: Q04DX003 (ip), vehicle: Klucel (hydroxypropylcellulose) (HPC)
[3] = dose: 200.0 mg/kg/injection, schedule: Q04DX003 (ip), vehicle: Klucel (hydroxypropylcellulose) (HPC)
[4] = dose: 200.0 mg/kg/injection, schedule: Q01DX009 (ip), vehicle: Klucel (hydroxypropylcellulose) (HPC)
[5] = dose: 400.0 mg/kg/injection, schedule: Q01DX009 (ip), vehicle: Klucel (hydroxypropylcellulose) (HPC)
[6] = dose: 12.5 mg/kg/injection, schedule: Q01DX009 (ip), vehicle: water
[7] = dose: 25.0 mg/kg/injection, schedule: Q01DX009 (ip), vehicle: water
[8] = dose: 50.0 mg/kg/injection, schedule: Q01DX009 (ip), vehicle: water
[9] = dose: 50.0 mg/kg/injection, schedule: Q04DX003 (ip), vehicle: water
[10] = dose: 100.0 mg/kg/injection, schedule: Q04DX003 (ip), vehicle: water
[11] = dose: 200.0 mg/kg/injection, schedule: Q04DX003 (ip), vehicle: water
[12] = dose: 400.0 mg/kg/injection, schedule: Q04DX003 (ip), vehicle: water

O=[N+]([O-])/C=C\c1ccc2c(c1)OCO2
T/C (dose: 25.0 mg/kg/injection, schedule: Q01DX009 (ip), vehicle: Klucel (hydroxypropylcellulose) (HPC)): 111 % of control and 120 % of control | T/C (dose: 35.0 mg/kg/injection, schedule: Q01DX009 (ip), vehicle: Klucel (hydroxypropylcellulose) (HPC)): 105 % of control | T/C (dose: 75.0 mg/kg/injection, schedule: Q01DX009 (ip), vehicle: Klucel (hydroxypropylcellulose) (HPC)): 95 % of control | T/C [1]: 100 % of control and 105 % of control | T/C [2]: 104 % of control | T/C [3]: 108 % of control

CCOC(=O)C(C)C(=O)Cc1cc(OC)c(C)cc1Br (stereo not given)
T/C (dose: 50.0 mg/kg/injection, schedule: Q04DX003 (ip), vehicle: Klucel (hydroxypropylcellulose) (HPC)): 100 % of control | T/C [1]: 110 % of control | T/C [2]: 91 % of control | T/C [4]: 105 % of control | T/C [3]: 95 % of control | T/C [5]: 100 % of control | T/C (dose: 400.0 mg/kg/injection, schedule: Q04DX003 (ip), vehicle: Klucel (hydroxypropylcellulose) (HPC)): 95 % of control

CC1(C)N=C(N)N=C(N)N1c1ccc(CNC(=O)Nc2ccc(S(=O)(=O)F)cc2)cc1
T/C (dose: 100.0 mg/kg/injection, schedule: Q01DX009 (ip), vehicle: saline): 115 % of control | T/C (dose: 100.0 mg/kg/injection, schedule: Q04DX003 (ip), vehicle: saline): 150 % of control | T/C (dose: 132.0 mg/kg/injection, schedule: Q04DX003 (ip), vehicle: saline): 181 % of control and 190 % of control | T/C (dose: 200.0 mg/kg/injection, schedule: Q01DX009 (ip), vehicle: saline): 100 % of control | T/C (dose: 200.0 mg/kg/injection, schedule: Q04DX003 (ip), vehicle: saline): 150 % of control and 177 % of control and 205 % of control | T/C (dose: 300.0 mg/kg/injection, schedule: Q04DX003 (ip), vehicle: saline): 230 % of control and 154 % of control | T/C (dose: 400.0 mg/kg/injection, schedule: Q04DX003 (ip), vehicle: saline): 163 % of control

O=NN(CCCl)C(=O)Nc1ccc2c3c(cccc13)-c1ccccc1-2
T/C (dose: 50.0 mg/kg/injection, schedule: Q01DX009 (ip), vehicle: Klucel (hydroxypropylcellulose) (HPC)): 156 % of control and 157 % of control | T/C [1]: 156 % of control and 157 % of control | T/C [4]: 161 % of control and 170 % of control | T/C [5]: 93 % of control

O=c1[nH]c2nccnc2[nH]1
T/C [6]: 93 % of control and 99 % of control | T/C [7]: 90 % of control and 104 % of control | T/C [8]: 97 % of control | T/C [9]: 107 % of control | T/C (dose: 100.0 mg/kg/injection, schedule: Q01DX009 (ip), vehicle: water): 89 % of control and 101 % of control and 109 % of control | T/C [10]: 105 % of control | T/C [11]: 107 % of control | T/C [12]: 116 % of control

CC(=O)Nc1cc(NC(C)=O)cc(N(CCO)CCO)c1
T/C (dose: 3.12 mg/kg/injection, schedule: Q01DX009 (ip), vehicle: water): 99 % of control | T/C (dose: 6.25 mg/kg/injection, schedule: Q01DX009 (ip), vehicle: water): 90 % of control and 111 % of control | T/C [6]: 93 % of control and 101 % of control | T/C [7]: 97 % of control and 101 % of control | T/C (dose: 25.0 mg/kg/injection, schedule: Q04DX003 (ip), vehicle: water): 89 % of control | T/C [8]: 117 % of control | T/C [9]: 100 % of control | T/C [10]: 104 % of control | T/C [11]: 112 % of control | T/C [12]: 108 % of control

CC#CC#C/C=C1\OC2(CCCCO2)C(O)C1OC(=O)CC(C)C (stereo not given)
T/C (dose: 10.0 mg/kg/injection, schedule: Q01DX009 (ip), vehicle: Klucel (hydroxypropylcellulose) (HPC)): 100 % of control | T/C (dose: 20.0 mg/kg/injection, schedule: Q01DX009 (ip), vehicle: Klucel (hydroxypropylcellulose) (HPC)): 102 % of control | T/C (dose: 40.0 mg/kg/injection, schedule: Q01DX009 (ip), vehicle: Klucel (hydroxypropylcellulose) (HPC)): 111 % of control
